Residue numbers refer to the chain shown, from its start.
How the values were obtained:
[1] = biological target: T1, Comamonas testosteroni 3α-HSDH, wild type, without His tag, SEQ ID NO:4 (Comamonas testosteroni, UniProt P80702); test: Michaelis-Menten kinetics of wild-type 3α-HSDH without His tag
T1 sequence (P80702 1-257): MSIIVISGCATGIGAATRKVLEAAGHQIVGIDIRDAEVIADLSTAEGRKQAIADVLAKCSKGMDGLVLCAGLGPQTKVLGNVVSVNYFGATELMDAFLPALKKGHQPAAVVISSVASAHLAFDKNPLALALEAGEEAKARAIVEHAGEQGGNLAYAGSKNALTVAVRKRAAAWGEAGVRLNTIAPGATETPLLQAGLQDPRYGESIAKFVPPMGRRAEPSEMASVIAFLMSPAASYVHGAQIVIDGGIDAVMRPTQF

[2] = biological target: T2, Comamonas testosteroni 3α-HSDH dual mutant [L68A/T188S], N-terminal hexahistidine tag (Comamonas testosteroni, UniProt P80702, L68A/T188S)
T2 sequence (P80702 1-257 L68A/T188S): T1 sequence (P80702 1-257) with L68A, T188S

[3] = biological target: T3, Comamonas testosteroni 3α-HSDH mutant [T188G], N-terminal hexahistidine tag (Comamonas testosteroni, UniProt P80702, T188G); test: Kinetics of 3α-HSDH [T188G], N-terminal His tag; type: biochemical; conditions: DHCA
T3 sequence (P80702 1-257 T188G): T1 sequence (P80702 1-257) with T188G
Experimental: The activity of the 3α-HSDH and of the mutants was determined using a photometric assay, where the decrease in absorbance was measured at 340 nm over a period of 30 seconds.
The targeted exchange of amino acid radicals was performed analogously to Example 2B.
Following cultivation and expression, the cells were harvested, and the specific activities of the cell-free crude extracts were determined at substrate concentrations of 10 mM DHCA. The enzyme variants where the activity measurements with crude extract enzyme were most promising were purified by means of Ni-NTA chromatography, and their kinetic constants were determined by measurements with different DHCA concentrations of between 10 μM and 20 mM. In addition, an expression check by means of SDS PAGE was carried out for all mutants.

[4] = biological target: T4, Comamonas testosteroni 3α-HSDH mutant [L68A], N-terminal hexahistidine tag (Comamonas testosteroni, UniProt P80702, L68A)
T4 sequence (P80702 1-257 L68A): T1 sequence (P80702 1-257) with L68A
Experimental: After cultivation and expression, the proteins were purified by means of Ni-NTA chromatography, the specific activities were determined and their kinetic constants were determined.

[5] = biological target: T5, Comamonas testosteroni 3α-HSDH dual mutant [L68A/T188A], N-terminal hexahistidine tag (Comamonas testosteroni, UniProt P80702, L68A/T188A)
T5 sequence (P80702 1-257 L68A/T188A): T1 sequence (P80702 1-257) with L68A, T188A

[6] = biological target: T6, Comamonas testosteroni 3α-HSDH mutant [T188A], N-terminal hexahistidine tag (Comamonas testosteroni, UniProt P80702, T188A); test: Kinetics of 3α-HSDH [T188A], N-terminal His tag
T6 sequence (P80702 1-257 T188A): T1 sequence (P80702 1-257) with T188A

[7] = Table 14, substrate DHCA, tag N, apparent values
[8] = Table 14, substrate DHCA, tag N, NADH 0.2 mM, apparent values

Structure (SMILES): C[C@H](CCC(=O)O)[C@H]1CC[C@H]2[C@@H]3C(=O)C[C@@H]4CC(=O)CC[C@]4(C)[C@H]3CC(=O)[C@]12C [DHCA, dehydrocholic acid]
- vmax ([1]; Table 14, substrate DHCA, no tag, apparent values): 134 ± 3.8 U/mg
- residual activity ([1]; after increasing DHCA further above approximately 1 mM, substrate excess inhibition): 10-20%
- kcat [2, 7]: 91.8 s⁻¹
- vmax [2, 7]: 193.2 ± 11.4 U/mg
- remaining activity at 10000 µM ([2]; read-out: residual activity): ~20%
- substrate excess inhibition [3]: No pronounced substrate excess inhibition
- kcat [4, 8]: 138.0 s⁻¹
- vmax [4, 8]: 290.0 ± 45.4 U/mg
- remaining activity at 1000 µM ([4]; read-out: residual activity): ~15%
- remaining activity at 10000 µM ([4]; read-out: residual activity): ~8%
- kcat [5, 7]: 111.1 s⁻¹
- vmax [5, 7]: 233.5 ± 12.5 U/mg
- remaining activity at 1000 µM ([5]; read-out: residual activity): 85%
- remaining activity at 10000 µM ([5]; read-out: residual activity): > 20%
- kcat [6, 7]: 130.3 s⁻¹
- vmax [6, 7]: 274.0 ± 11.6 U/mg
- remaining activity at 20000 µM ([6]; read-out: residual activity): ~20%
